Assays:
A20 cells [1] = test: Whole-proteome LC-MS/MS of adjuvant-treated APCs, bacterial protein abundance; format: cell-based, Mus musculus; settings: A20 cells 12 hr post-adjuvant stimulation with H. pylori antigens
Experimental: (§1) A20 cells were cultured in T75 cell culture flasks (Corning, NY, USA). The expanded cells were pulsed with H. pylori lysates in combination with adjuvants MPLA, MDP, or CpG for 12 hr, collected, washed twice with sterile PBS, and divided into two fractions. One fraction, approximately 10^7 cells, was used for whole-proteome analysis. The remaining 10^8 cells were lysed in cold lysis buffer (1.0% w/v CHAPS, Protease Inhibitor tablet, and PMSF) for MHC-II complex immunoprecipitation. The cell lysates were centrifuged at 18,000×g for 20 min. The supernatant (containing the MHC–peptide complexes) was transferred into a new 1.5 mL microcentrifuge tube (Corning) containing a mixture of Sepharose CNBr-activated beads (Cytivia, Utah, USA) and 2 mg Anti-Mouse H2-IA^d/IE^d (M5/114) antibody (BioXcell, NH, USA). The immune complexes were captured on the beads by incubating on a rotor at 4℃ for 18 hr. Sequentially, the immune complexes were transferred to a polypropylene column (Bio-Rad Laboratories, Hercules, CA, USA) and washed with 10 mL buffer A (150 mM NaCl, 20 mM Tris, pH 8.0), 10 mL buffer B (400 mM NaCl, 20 mM Tris, pH 8.0), 10 mL buffer A, and 10 mL buffer C (Tris 20 mM, pH 8.0). The MHC-II–peptide complexes were eluted with 300 µL 10% glacial acetic acid (Macklin, Shanghai, China) three times. The eluate was stored at −80℃ until mass spectrometry analysis was performed.
Protein aliquots were mixed with 200 μL 8 M urea in Nanosep Centrifugal Devices (PALL) and centrifuged at 12,000×g at 20℃ for 20 min. All the centrifugation steps were performed under the same conditions, allowing for maximal concentration. Then, 200 μL 8 M urea solution with 10 mM DTT was added, and the reduction reaction was performed for 2 hr at 37°C. The solution was removed by centrifugation and 200 μL 8 M urea solution with 50 mM iodoacetamide (IAA) was added. The samples were incubated in the dark for 15 min at room temperature. The ultra-fraction tube was washed with 200 μL 8 M urea three times and 200 μL 25 mM ammonium bicarbonate three times by centrifugation at 12,000×g for 20 min at room temperature. […]

A20 cells [2] = test: MHC-II immunopeptidome (LC-MS/MS) of adjuvant-treated APCs; format: cell-based, Mus musculus
Experimental: as §1, with “performed. […]” for “performed.”

CD4+ T-cells [3] = test: IFN-γ ICS of in vitro expanded peptide-specific CD4+ T-cells, peptide pool and titrated peptides; format: cell-based, BALB/c mice; settings: titrated peptides, response at 50 μM taken as 100%, n=3, ICS flow cytometry; compared with ureA #2 and ureA #3
Experimental: (§2) Six- to eight-week-old SPF female BALB/c mice were immunized subcutaneously with 100 μg recombinant H pylori UreB (rUreB, purity >95%) emulsified in adjuvants CpG (20 μg/ mouse), MDP (30 μg/ mouse), and MPLA (10 μg/ mouse). Mice immunized with the same antigen without adjuvants were used as controls. Ten days later, the mice were euthanized with Carbon Dioxide (CO₂), and their spleens were harvested. Antigen-specific T-cells were expanded in vitro as described previously ([Li et al., 2015]). Briefly, the lymphocytes from spleens were isolated using a Ficoll–Hypaque (Dakewe, Shanghai, China) gradient, pulsed with 0.5 μM rUreB protein in the presence of 5 U/mL rmIL-2 (PeproTech, NJ, USA), and in vitro cultured in ‘RF-10’ medium consisting of RPMI 1640 (Gibco, CA, USA) supplemented with 10% fetal calf serum (Gibco), 1% L-glutamine, 1x 2-mercaptoethanol (Gibco), and 100 U/mL penicillin/ streptomycin. On day 5, the live cells were collected using a Ficoll–Hypaque gradient and cultured in a complete medium containing 20 U/mL rmIL-2. Half the medium was replaced when required.
Bulk-cultured T-cells were stimulated with 5 μM peptides for 5 hr in the presence of brefeldin A (BioLegend). The cells were collected and stained with specific antibodies against surface markers. […] The data were analyzed using FlowJo software (Tree Star, CA, USA). […]

splenocytes = test: IFN-γ ELISpot of splenocytes from peptide-pool immunized mice; format: in vivo; settings: five BALB/c mice immunized with pool of 10 peptides (50 μg each) in CFA; for IFN-γ ELISpot response, day 10 (effective phase): threshold 3x median of OVA peptide
Experimental: Six- to eight-week-old SPF female BALB/c mice were immunized subcutaneously with a pool of synthetic peptides (50 μg for each peptide) emulsified in Complete Freunds Adjuvant (Sigma-Aldrich). At 10 and 28 days post-vaccination, the mice were euthanized, and the spleens were removed for ELISpot assays.
Splenocytes (500,000 cells/well) were treated with red blood cell lysis buffer and stimulated with 5 μM peptides in triplicate in ELISpot plates (Dakewe Biotech, Shenzhen, China) for 18 hr. IFN-γ secretion was detected using capture and detection antibodies and imaged using an ELISpot & FluoroSpot Reader (Mabtech, Stockholm, Sweden). OVA peptide323–339 (ISQAVHAAHAEINEAGR) and non-stimulated wells were used as negative controls. PMA (BioGems, NJ, USA) was used as a positive control.

MHC-II H2-IA allele = test: MHC-II competition-binding assay in vitro; settings: competition with 0.1 μM biotin-labeled control peptide, 50 nM purified MHC-II, 37 °C 24 hr, europium fluorescence; eight concentrations, three independent experiments
CD4+ T-cells [4] = test: IFN-γ ICS screen of UreB overlapping 18mer peptides on T-cells from adjuvant-vaccinated mice; format: cell-based, BALB/c mice; settings: spleens day 10, expanded in vitro, 5 μM peptide 5 hr, ICS flow cytometry; for IFN-γ response of CD4+ T-cells to UreB 18mer peptides, CpG group: T-cells from mice vaccinated with UreB + CpG; for IFN-γ response of CD4+ T-cells to UreB 18mer peptides, CpG group / IFN-γ response of CD4+ T-cells to UreB 18mer peptides, MPLA group / IFN-γ response of CD4+ T-cells to UreB 18mer peptides, MDP group: representative of three independent experiments; for IFN-γ response of CD4+ T-cells to UreB 18mer peptides, MPLA group: T-cells from mice vaccinated with UreB + MPLA; for IFN-γ response of CD4+ T-cells to UreB 18mer peptides, MDP group: T-cells from mice vaccinated with UreB + MDP
Experimental: as §2
Bulk-cultured T-cells were stimulated with 5 μM peptides for 5 hr in the presence of brefeldin A (BioLegend). The cells were collected and stained with specific antibodies against surface markers. Intracellular cytokine staining was performed after fixation. Cells were acquired using an LSRFortessa Flow Cytometer (BD Biosciences) or a Navios Flow Cytometer (Beckman Coulter, FL, USA). The data were analyzed using FlowJo software (Tree Star, CA, USA).

CC(=O)N[C@@H]1[C@@H](O[C@H](C)C(=O)N[C@@H](C)C(=O)N[C@H](CCC(=O)O)C(N)=O)[C@H](O)[C@@H](CO)O[C@H]1O [MDP]
% H. pylori: percentage of bacterial protein abundances in the total whole proteome (A20 cells [1]; sample (replicate) 1): 0.95% | % H. pylori: percentage of bacterial protein abundances in the total whole proteome (A20 cells [1]; sample (replicate) 2): 1.04% | % H. pylori: percentage of bacterial protein abundances in the total whole proteome (A20 cells [1]; sample (replicate) 3): 1.09% | Number of MHC peptides identified (A20 cells [2]; A20 cells treated with adjuvant + H. pylori antigens 12 hr, 10^8 cells, MHC-II IP, LC-MS/MS, mean of n=3 biological replicates): 3257 | Effect of adjuvant on peptide repertoires presented by APCs (A20 cells [2]; A20 cells, H. pylori antigens + adjuvant 12 hr, immunopeptidome): not

AFIDAEHALDVHYAKR [recA #23]
IFN-γ response of expanded CD4+ T-cells to titrated peptide (CD4+ T-cells [3]): more robust CD4^+ T-cell responses at lower peptide concentrations | IFN-γ ELISpot response, day 28 (memory phase) (splenocytes): not weaker than that of the other peptides | IFN-γ ELISpot response, day 10 (effective phase) (splenocytes): positive responses | Binding stability for MHC-II (MHC-II H2-IA allele): low-stability

ASMIHEVGIEAMFPDGTK [ureA #2]
IFN-γ ELISpot response, day 10 (effective phase) (splenocytes): positive responses | Binding stability for MHC-II (MHC-II H2-IA allele): highly stable

KMLELANQIKTNLSAIPQ [hopZ #53]
IFN-γ ELISpot response, day 10 (effective phase) (splenocytes): positive responses | Binding stability for MHC-II (MHC-II H2-IA allele): highly stable

U313–330: UreB overlapping 18mer peptide (EHMDMLMVCHHLDKSIKE; UniProt P69996 313-330, looked up, fragment)
IFN-γ response of CD4+ T-cells to UreB 18mer peptides, CpG group (CD4+ T-cells [4]): dominant response | IFN-γ response of CD4+ T-cells to UreB 18mer peptides, MPLA group (CD4+ T-cells [4]): primarily recognized

U403–426: UreB region covered by overlapping 18mer peptides (KRYLSKYTINPAIAHGISEYVGSV; UniProt P69996 403-426, looked up, fragment)
IFN-γ response of CD4+ T-cells to UreB 18mer peptides, CpG group (CD4+ T-cells [4]): dominant response

U409–426: UreB overlapping 18mer peptide (YTINPAIAHGISEYVGSV; UniProt P69996 409-426, looked up, fragment)
IFN-γ response of CD4+ T-cells to UreB 18mer peptides, MDP group (CD4+ T-cells [4]): dominant response

U481–498: UreB overlapping 18mer peptide (HHGKAKYDANITFVSQAA; UniProt P69996 481-498, looked up, fragment)
IFN-γ response of CD4+ T-cells to UreB 18mer peptides, MDP group (CD4+ T-cells [4]): dominant response

U481–U504: UreB dominant region covered by overlapping 18mer peptides (HHGKAKYDANITFVSQAAYDKGIK; UniProt P69996 481-504, looked up, fragment)
IFN-γ response of CD4+ T-cells to UreB 18mer peptides, no-adjuvant group (CD4+ T-cells [4]; T-cells from mice vaccinated with UreB without adjuvant): dominant region

U505–522: UreB overlapping 18mer peptide (EELGLERQVLPVKNCRNI; UniProt P69996 505-522, looked up, fragment)
IFN-γ response of CD4+ T-cells to UreB 18mer peptides, MPLA group (CD4+ T-cells [4]): primarily recognized

YVEAVALISAHIMEEAR [ureA #3]
IFN-γ ELISpot response, day 10 (effective phase) (splenocytes): positive responses | Binding stability for MHC-II (MHC-II H2-IA allele): highly stable
